# Measurements: publication PMC6112376, “Comprehensive Analyses and Prioritization of Tox21 10K Chemicals Affecting Mitochondrial Function by in-Depth Mechanistic Studies” (Environmental Health Perspectives, 2018)
# Read-outs that look alike come from different tables or passages of the source.
# What was measured:
# hNSC = experiment: MMP assay in human neural stem cells (hNSC); assay type: cell-based; details: Homo sapiens, Neural stem cell, 1 h, read-out: hNSC IC50 (MMP)
# HepG2 cells [1] = experiment: ROS-Glo hydrogen peroxide (ROS) assay; assay type: cell-based, human
# HepG2 cells [2] = experiment: Intracellular ATP content (cell viability) assay; assay type: cell-based, human; details: Homo sapiens, HepG2, 40 h
# [3] = system: Nrf2/ARE (ARE-bla HepG2 cells); experiment: ARE β-lactamase reporter gene assay; assay type: cell-based, human; details: Homo sapiens, read-out: ARE (HepG2) EC50
# [4] = system: isolated rat liver mitochondria; experiment: Oxygen consumption, Clark-type oxygen electrode; assay type: biochemical
# [5] = system: mitochondrial respiratory chain complex I; assay type: biochemical, rat
# [6] = biological target: T1, mitochondrial respiratory chain complex II (Rattus norvegicus, UniProt P21913+Q641Z9+Q6PCT8+Q920L2); experiment: Respiratory chain complex II activity; assay type: biochemical; details: tested up to 100μM
# T1 construct: Submitochondrial particles were prepared by subjecting the intact rat mitochondria, isolated as described above, to three successive freeze–thaw cycles; from tissue; host or cells: rat liver mitochondria (submitochondrial particles)
# T1 sequence (Q920L2 35-656): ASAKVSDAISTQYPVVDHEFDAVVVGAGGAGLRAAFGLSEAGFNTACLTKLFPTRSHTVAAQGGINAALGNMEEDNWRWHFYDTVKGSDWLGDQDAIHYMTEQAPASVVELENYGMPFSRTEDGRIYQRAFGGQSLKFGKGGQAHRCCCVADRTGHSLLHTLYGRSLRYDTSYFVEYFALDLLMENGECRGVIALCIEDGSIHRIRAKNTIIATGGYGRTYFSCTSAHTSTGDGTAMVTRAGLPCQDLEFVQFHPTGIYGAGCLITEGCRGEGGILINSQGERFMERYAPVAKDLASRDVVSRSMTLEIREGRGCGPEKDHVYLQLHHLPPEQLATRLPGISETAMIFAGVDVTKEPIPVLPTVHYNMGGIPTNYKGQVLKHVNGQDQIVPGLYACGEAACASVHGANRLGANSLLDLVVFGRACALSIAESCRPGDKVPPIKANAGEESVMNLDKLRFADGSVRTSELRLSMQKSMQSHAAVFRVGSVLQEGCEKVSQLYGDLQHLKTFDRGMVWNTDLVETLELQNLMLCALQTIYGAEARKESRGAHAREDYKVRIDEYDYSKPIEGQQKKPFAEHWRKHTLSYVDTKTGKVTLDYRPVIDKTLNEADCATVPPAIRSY
# T1 sequence (P21913 31-282): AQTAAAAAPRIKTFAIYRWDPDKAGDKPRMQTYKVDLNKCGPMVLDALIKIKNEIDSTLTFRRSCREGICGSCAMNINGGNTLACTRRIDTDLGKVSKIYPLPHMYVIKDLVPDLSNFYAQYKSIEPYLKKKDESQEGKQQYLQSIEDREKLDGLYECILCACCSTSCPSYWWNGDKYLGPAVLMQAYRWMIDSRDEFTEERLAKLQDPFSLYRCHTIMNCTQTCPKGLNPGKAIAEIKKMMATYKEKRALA
# T1 sequence (Q641Z9 1-169): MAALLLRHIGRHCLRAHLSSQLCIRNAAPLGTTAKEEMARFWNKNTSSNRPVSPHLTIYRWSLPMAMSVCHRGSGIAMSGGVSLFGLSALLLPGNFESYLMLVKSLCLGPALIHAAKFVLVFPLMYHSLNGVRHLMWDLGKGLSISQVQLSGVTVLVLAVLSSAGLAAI
# T1 sequence (Q6PCT8 57-159): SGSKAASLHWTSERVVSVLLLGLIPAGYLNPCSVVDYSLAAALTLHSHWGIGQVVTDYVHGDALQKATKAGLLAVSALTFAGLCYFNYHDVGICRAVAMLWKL
# [7] = system: mitochondrial respiratory chain complex III; assay type: biochemical, rat
# [8] = system: mitochondrial respiratory chain complex IV; assay type: biochemical, rat
# [9] = system: mitochondrial respiratory chain complex V; assay type: biochemical, rat
# [10] = system: HeLa cells expressing YFP-Parkin; experiment: Parkin translocation assay; assay type: cell-based, human
# rat primary hepatocytes [11] = system: rat primary hepatocytes
# HepG2 cells [12] = details: cited from earlier work
# [13] = system: Caenorhabditis elegans (Bristol N2); details: Bristol N2 (wild type), Caenorhabditis elegans, in vivo
# HepG2 cells [14] = experiment: cells; details: Homo sapiens; for Emax: HepG2, read-out: MMP assays efficacy (%) HepG2
# rat primary hepatocytes [15] = experiment: MMP assay in rat primary hepatocytes; details: Rattus norvegicus, Hepatocyte
# [16] = system: Caenorhabditis elegans (Bristol N2); experiment: C. elegans larval development and growth assay; details: for minimal effective concentration: Caenorhabditis elegans, read-out: LEC EXT: lowest effect concentration for extinction, a measure of nematode size
# [17] = system: Caenorhabditis elegans strain PE255; experiment: In vivo C. elegans ATP status assay; details: Caenorhabditis elegans, read-out: LEC LUM: lowest effect concentration for luminescence, a measure of nematode ATP content
# [18] = read-out: ATP (HepG2, galactose) IC50
# [19] = read-out: ATP (HepG2, glucose) IC50
# [20] = HepG2, 1 h, read-out: HepG2 IC50 Galactose (MMP)
# [21] = HepG2, 1 h, read-out: HepG2 IC50 Glucose (MMP)
# [22] = 1 h, read-out: Rat hepatocytes IC50 (MMP)
# [23] = read-out: MMP assays IC50 (µM) Rat Hepatocytes
compound,measurement,setting,value
"C=C(c1ccc(C(=O)O)cc1)c1cc2c(cc1C)C(C)(C)CCC2(C)C [Bexarotene, reference compound]",IC50,hNSC,22.3 µM
same,ROS (HepG2) EC50,HepG2 cells [1],Inactive
same,IC50,HepG2 cells [2]; [18],63.2 µM
same,IC50,HepG2 cells [2]; [19],63.2 µM
same,EC50,"[3]; HepG2, 16 h incubation, mean±SD of three experiments",11.5 ± 0.75 µM
same,Potential Mechanism,[4],Uncoupler + inhibitor
same,"I-ADP, % of control (O2 consumption rate)",[4]; 0.8 µM,92 (45.5) % of control
same,"I-sub, % of control (O2 consumption rate)",[4]; 0.8 µM,108 (17.4) % of control
same,"II-ADP, % of control (O2 consumption rate)",[4]; 0.8 µM,84 (65.0) % of control
same,"II-sub, % of control (O2 consumption rate)",[4]; 0.8 µM,93 (28.5) % of control
same,"I-ADP, % of control (O2 consumption rate)",[4]; 4 µM,86 (42.6) % of control
same,"II-ADP, % of control (O2 consumption rate)",[4]; 4 µM,81 (62.5) % of control
same,"II-sub, % of control (O2 consumption rate)",[4]; 4 µM,97 (29.8) % of control
same,"I-ADP, % of control (O2 consumption rate)",[4]; 20 µM,61 (29.8) % of control
same,"I-sub, % of control (O2 consumption rate)",[4]; 20 µM,155 (25.0) % of control
same,"II-ADP, % of control (O2 consumption rate)",[4]; 20 µM,39 (30.1) % of control
same,"II-sub, % of control (O2 consumption rate)",[4]; 20 µM,107 (32.7) % of control
same,"I-ADP, % of control (O2 consumption rate)",[4]; 100 µM,5 (2.8) % of control
same,"I-sub, % of control (O2 consumption rate)",[4]; 100 µM,36 (4.9) % of control
same,"II-ADP, % of control (O2 consumption rate)",[4]; 100 µM,6 (3.8) % of control
same,"II-sub, % of control (O2 consumption rate)",[4]; 100 µM,24 (5.1) % of control
same,Complex I % inhibition (activity call),[5],Inactive
same,Complex II % inhibition (activity call),[6],Inactive
same,Complex III % inhibition (activity call),[7],Inactive
same,Complex IV % inhibition (activity call),[8],Inactive
same,Complex V % inhibition (activity call),[9],Inactive
same,Parkin recruitment,[10],Inactive
same,MMP assays efficacy (%) Rat Hepatocytes,rat primary hepatocytes [11],-112±7%
same,Rat hepatocytes (efficacy) (MMP),rat primary hepatocytes [11],39.9±5.09 ( −93.8±8.55 ) %
same,MMP assays efficacy (%) qHTS-HepG2,HepG2 cells [12],-124±6%
same,IC50,HepG2 cells [12]; read-out: MMP assays IC50 (µM) qHTS-HepG2,16.5 ± 3.95 µM
same,"LEC (lowest effect concentration), larval growth assay",[13],≤ 10 µM
same,IC50,HepG2 cells [14]; [20],50.2 µM
same,IC50,HepG2 cells [14]; [21],50 µM
same,Emax,HepG2 cells [14],106%
same,IC50,rat primary hepatocytes [15]; [22],39.9 µM
same,IC50,rat primary hepatocytes [15]; [23],9.08 ± 1.16 µM
same,minimal effective concentration,[16],10 µM
"C=C(C)[C@H]1Cc2c(ccc3c2O[C@@H]2COc4cc(OC)c(OC)cc4[C@@H]2C3=O)O1 [Rotenone, reference compound]",IC50,hNSC,23.7 µM
same,EC50,"HepG2 cells [1]; Homo sapiens, HepG2, 2 h, read-out: ROS (HepG2) EC50",4.04 µM
same,IC50,HepG2 cells [2]; [18],1.63 µM
same,IC50,HepG2 cells [2]; [19],1.05 µM
same,EC50,"[3]; HepG2, 16 h",0.05 ± 0.02 µM
same,Potential Mechanism,[4],Inhibitor (at complex I)
same,effect on mitochondrial respiration (in words),[4],"only inhibited glutamate/malate-driven respiration, but not succinate-driven respiration"
same,"I-ADP, % of control (O2 consumption rate)",[4]; 0.00128 µM,91 (44.7) % of control
same,"I-sub, % of control (O2 consumption rate)",[4]; 0.00128 µM,113 (15.6) % of control
same,"II-ADP, % of control (O2 consumption rate)",[4]; 0.00128 µM,98 (87.5) % of control
same,"II-sub, % of control (O2 consumption rate)",[4]; 0.00128 µM,94 (25.3) % of control
same,"I-ADP, % of control (O2 consumption rate)",[4]; 0.0064 µM,81 (40.2) % of control
same,"I-sub, % of control (O2 consumption rate)",[4]; 0.0064 µM,114 (15.8) % of control
same,"II-ADP, % of control (O2 consumption rate)",[4]; 0.0064 µM,83 (74.3) % of control
same,"II-sub, % of control (O2 consumption rate)",[4]; 0.0064 µM,56 (15.2) % of control
same,"I-ADP, % of control (O2 consumption rate)",[4]; 0.032 µM,27 (13.1) % of control
same,"I-sub, % of control (O2 consumption rate)",[4]; 0.032 µM,86 (11.9) % of control
same,"II-ADP, % of control (O2 consumption rate)",[4]; 0.032 µM,97 (86.1) % of control
same,"II-sub, % of control (O2 consumption rate)",[4]; 0.032 µM,79 (21.4) % of control
same,"I-ADP, % of control (O2 consumption rate)",[4]; 0.16 µM,20 (9.9) % of control
same,"I-sub, % of control (O2 consumption rate)",[4]; 0.16 µM,71 (9.9) % of control
same,"II-ADP, % of control (O2 consumption rate)",[4]; 0.16 µM,107 (95.0) % of control
same,"II-sub, % of control (O2 consumption rate)",[4]; 0.16 µM,97 (26.3) % of control
same,"I-ADP, % of control (O2 consumption rate)",[4]; 0.8 µM,18 (8.9) % of control
same,"I-sub, % of control (O2 consumption rate)",[4]; 0.8 µM,64 (8.9) % of control
same,"II-ADP, % of control (O2 consumption rate)",[4]; 0.8 µM,99 (88.3) % of control
same,"II-sub, % of control (O2 consumption rate)",[4]; 0.8 µM,99 (26.9) % of control
same,"I-ADP, % of control (O2 consumption rate)",[4]; 4 µM,19 (9.5) % of control
same,"I-sub, % of control (O2 consumption rate)",[4]; 4 µM,64 (8.8) % of control
same,"II-ADP, % of control (O2 consumption rate)",[4]; 4 µM,97 (86.3) % of control
same,"II-sub, % of control (O2 consumption rate)",[4]; 4 µM,97 (26.2) % of control
same,"I-ADP, % of control (O2 consumption rate)",[4]; 20 µM,18 (8.8) % of control
same,"I-sub, % of control (O2 consumption rate)",[4]; 20 µM,62 (8.6) % of control
same,"II-ADP, % of control (O2 consumption rate)",[4]; 20 µM,95 (84.3) % of control
same,"II-sub, % of control (O2 consumption rate)",[4]; 20 µM,107 (28.9) % of control
same,inhibitory effect on Complex I at (concentration),[5],0.032 µM
same,Complex I % inhibition,[5]; at 0.032μM,37.5±3.32 at 0.032μM %
same,Complex II % inhibition (activity call),[6],Inactive
same,Complex III % inhibition (activity call),[7],Inactive
same,Complex IV % inhibition (activity call),[8],Inactive
same,Complex V % inhibition (activity call),[9],Inactive
same,Parkin recruitment,[10],Inactive
same,Parkin translocation into mitochondria (in words),[10]; 3 h,did not induce Parkin translocation
same,MMP assays efficacy (%) Rat Hepatocytes,rat primary hepatocytes [11],-86+39%
same,Rat hepatocytes (efficacy) (MMP),rat primary hepatocytes [11],0.36±0.22 ( −85.9±10.7 ) %
same,MMP assays efficacy (%) qHTS-HepG2,HepG2 cells [12],-104±7%
same,IC50,"HepG2 cells [12]; read-out: MMP assays IC50 (µM), qHTS-HepG2",17.4 ± 1.94 µM
same,inhibitory effect at (concentration) on larval growth in the C. elegans assay,[13],0.05 µM
same,IC50,HepG2 cells [14]; [20],31.8 µM
same,IC50,HepG2 cells [14]; [21],44.7 µM
same,IC50,"HepG2 cells [14]; HepG2, read-out: MMP assays IC50 (µM) HepG2",0.0123 µM
same,Emax,HepG2 cells [14],95%
same,minimal effective concentration,[17],0.5 µM
same,IC50,rat primary hepatocytes [15]; [22],0.36 µM
same,IC50,rat primary hepatocytes [15]; [23],0.2 ± 0.3 µM
same,larval growth effect at 0.5μM,[16]; 0.5 µM,severe larval growth arrest
same,minimal effective concentration,[16],0.05 µM
